Counter-ions that a name gives are not always drawn. Where only a bound is given, the exact number is not on record here.

In this test the target is T1, human EP1 receptor (Homo sapiens, UniProt P34995).
T1 construct: expressed in transfected cells; host or cells: CHO-K1
T1 sequence (P34995 1-402): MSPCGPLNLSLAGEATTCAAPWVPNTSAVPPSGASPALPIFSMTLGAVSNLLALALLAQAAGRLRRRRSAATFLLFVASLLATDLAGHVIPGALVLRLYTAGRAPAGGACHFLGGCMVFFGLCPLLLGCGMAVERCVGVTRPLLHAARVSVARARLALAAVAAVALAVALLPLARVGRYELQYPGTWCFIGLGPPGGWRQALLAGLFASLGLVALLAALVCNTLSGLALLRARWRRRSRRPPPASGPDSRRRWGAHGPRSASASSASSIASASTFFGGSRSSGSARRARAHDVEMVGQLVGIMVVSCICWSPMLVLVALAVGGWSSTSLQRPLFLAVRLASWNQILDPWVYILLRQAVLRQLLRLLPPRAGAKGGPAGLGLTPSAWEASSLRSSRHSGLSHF
The test is described as follows: human EP1 calcium mobilisation assay. Type of test: cell-based. To be noted: negative logarithm10 of the antagonist dissociation constant; CHO-K1 cells, PGE2; free bases or sodium salts; averages of a number of experiments; read-out: functional pKi value (converted). Here is the method: Briefly, the antagonist properties of compounds are assessed by their ability to inhibit the mobilisation of intracellular calcium ([Ca^2+]i) in response to activation of EP1 or EP3 receptors by the natural agonist hormone prostaglandin E2 (PGE2). Increasing concentrations of antagonist reduce the amount of calcium that a given concentration of PGE2 can mobilise. The net effect is to displace the PGE2 concentration-effect curve to higher concentrations of PGE2. The amount of calcium produced is assessed using a calcium-sensitive fluorescent dye such as Fluo-4, AM and a suitable instrument such as a Fluorimetric Imaging Plate Reader (FLIPR). Increasing amounts of [Ca^2+]i produced by receptor activation increase the amount of fluorescence produced by the dye and give rise to an increasing signal. The signal may be detected using the FLIPR instrument and the data generated may be analysed with suitable curve-fitting software.
The human EP1 or EP3 calcium mobilisation assay (hereafter referred to as ‘the calcium assay’) utilises Chinese hamster ovary-K1 (CHO-K1) cells into which a stable (pCIN; BioTechniques 20 (1996): 102-110) vector containing either EP1 or EP3 cDNA has previously been transfected. Cells are cultured in suitable flasks containing culture medium such as DMEM:F-12 supplemented with 10% v/v foetal calf serum, 2 mM L-glutamine, 0.25 mg/ml geneticin, 100 μM flurbiprofen and 10 μg/ml puromycin.
For assay, cells are harvested using a proprietary reagent that dislodges cells such as Versene. Cells are re-suspended in a suitable quantity of fresh culture media for introduction into a 384-well plate. Following incubation for 24 hours at 37° C. the culture media is replaced with a medium containing Fluo-4 and the detergent pluronic acid, and a further incubation takes place. Concentrations of compounds are then added to the plate in order to construct concentration-effect curves. This may be performed on the FLIPR in order to assess the agonist properties of the compounds. Concentrations of PGE2 are then added to the plate in order to assess the antagonist properties of the compounds.
The data so generated may be analysed by means of a computerised curve-fitting routine. The concentration of compound that elicits a half-maximal inhibition of the calcium mobilisation induced by PGE2 (plC50) may then be estimated.
Take `Cc1cc(OC(=O)NC2CCCCC2)nn1Cc1cc(Cl)ccc1OCc1ccccc1` [Example 43, 1-({5-Chloro-2-[(phenylmethyl)oxy]phenyl}methyl)-5-methyl-1H-pyrazol-3-yl cyclohexylcarbamate]: the Ki is more than 1000 nM. In the case of `Cc1cc(OC(=O)NC2CCCCC2)nn1Cc1cc(Cl)ccc1OCC(C)C` [Example 51, 1-({5-Chloro-2-[(2-methylpropyl)oxy]phenyl}methyl)-5-methyl-1H-pyrazol-3-yl cyclohexylcarbamate], the Ki was more than 1000 nM.

Take `Cc1cc(OC(=O)NCc2ccc(NC(=O)OC(C)(C)C)cc2)nn1Cc1cc(Cl)ccc1OCc1ccccc1` [Example 56, 1-({5-Chloro-2-[(phenylmethyl)oxy]phenyl}methyl)-5-methyl-1H-pyrazol-3-yl {[4-({[(1,1-dimethylethyl)oxy]carbonyl}amino)phenyl]methyl}carbamate]: the Ki is more than 1000 nM. On to `Cc1cc(OC(=O)NCc2ccc(CNC(=O)OC(C)(C)C)cc2)nn1Cc1cc(Cl)ccc1OCc1ccccc1` [Example 59, 1-({5-Chloro-2-[(phenylmethyl)oxy]phenyl}methyl)-5-methyl-1H-pyrazol-3-yl 1,1-dimethylethyl (benzene-1,4-dildimethanediyl)biscarbamate], for which the Ki was more than 1000 nM. Next, `Cc1cc(OC(=O)NCc2cccc(NC(=O)OC(C)(C)C)c2)nn1Cc1cc(Cl)ccc1OCc1ccccc1` [Example 60, 1-({5-Chloro-2-[(phenylmethyl)oxy]phenyl}methyl)-5-methyl-1H-pyrazol-3-yl {[3-({[(1,1-dimethylethyl)oxy]carbonyl}amino)phenyl]methyl}carbamate]: more than 1000 nM; `Cc1cc(OC(=O)NCc2cccc(CNC(=O)OC(C)(C)C)c2)nn1Cc1cc(Cl)ccc1OCc1ccccc1` [Example 61, 1-({5-Chloro-2-[(phenylmethyl)oxy]phenyl}methyl)-5-methyl-1H-pyrazol-3-yl 1,1-dimethylethyl (benzene-1,3-diyldimethanediyl)biscarbamate]: more than 1000 nM. Next, `COC(=O)Nc1cc(C)n(Cc2cc(Cl)ccc2OCc2ccccc2)n1` [Example 65, Methyl[1-({5-chloro-2-[(phenylmethyl)oxy]phenyl}methyl)-5-methyl-1H-pyrazol-3-yl]carbamate]: more than 1000 nM; `CCOC(=O)Nc1cc(C)n(Cc2cc(Cl)ccc2OCc2ccccc2)n1` [Example 66, Ethyl [1-({5-chloro-2-[(phenylmethyl)oxy]phenyl}methyl)-5-methyl-1H-pyrazol-3-yl]carbamate]: more than 1000 nM; `Cc1cc(NC(=O)c2ccc3c(c2)CCN(C(=O)OC(C)(C)C)CC3)nn1Cc1cc(Cl)ccc1OCC(C)C` [Example 97, 1,1-Dimethylethyl 7-({[1-({5-chloro-2-[(2-methylpropyl)oxy]phenyl}methyl)-5-methyl-1H-pyrazol-3-yl]amino}carbonyl)-1,2,4,5-tetrahydro-3H-3-benzazepine-3-carboxylate]: more than 1000 nM.

For the compound `Cc1cc(NC(=O)c2ccc3c(c2)CCNCC3)nn1Cc1cc(Cl)ccc1OCC(C)C` [Example 98, N-[1-({5-Chloro-2-[(2-methylpropyl)oxy]phenyl}methyl)-5-methyl-1H-pyrazol-3-yl]-2,3,4,5-tetrahydro-1H-3-benzazepine-7-carboxamide hydrochloride], the Ki was more than 1000 nM. Turning to `CC(=O)Nc1cc(C)n(Cc2cc(Cl)ccc2OCC(C)C)n1` [Example 103, N-[1-({5-Chloro-2-[(2-methylpropyl)oxy]phenyl}methyl)-5-methyl-1H-pyrazol-3-yl]acetamide], the Ki is more than 1000 nM. For the compound `CC(=O)Nc1cc(C)n(Cc2cc(Cl)ccc2OCc2ccccc2)n1` [Example 104, N-[1-({5-Chloro-2-[(phenylmethyl)oxy]phenyl}methyl)-5-methyl-1H-pyrazol-3-yl]acetamide], the Ki was more than 1000 nM. As for `Cc1cc(NC(=O)Cc2ccccc2)nn1Cc1cc(Cl)ccc1OCc1ccccc1F` [Example 120, N-{1-[(5-Chloro-2-{[(2-fluorophenyl)methyl]oxy}phenyl)methyl]-5-methyl-1H-pyrazol-3-yl}-2-phenylacetamide], the Ki is more than 1000 nM. `Cc1cc(NC(=O)Cc2ccccc2)nn1Cc1cc(Cl)ccc1OCc1ccc(F)cc1` [Example 121, N-{1-[(5-Chloro-2-{[(4-fluorophenyl)methyl]oxy}phenyl)methyl]-5-methyl-1H-pyrazol-3-yl}-2-phenylacetamide]: the Ki was more than 1000 nM.

Consider `Cc1cc(NC(=O)Cc2ccccc2)nn1Cc1cc(Cl)ccc1OCc1ccc(F)cc1F` [Example 122, N-{1-[(5-Chloro-2-{[(2,4-difluorophenyl)methyl]oxy}phenyl)methyl]-5-methyl-1H-pyrazol-3-yl}-2-phenylacetamide], for which the Ki is more than 1000 nM. Consider `Cc1cc(NC(=O)Cc2ccccc2)nn1Cc1cc(Cl)ccc1OCc1ccc(F)c(F)c1F` [Example 123, N-{1-[(5-Chloro-2-{[(2,3,4-trifluorophenyl)methyl]oxy}phenyl)methyl]-5-methyl-1H-pyrazol-3-yl}-2-phenylacetamide], for which the Ki is more than 1000 nM. For the compound `Cc1cc(NC(=O)Cc2ccccc2)nn1Cc1cc(Cl)ccc1OCc1ccc(F)cc1Cl` [Example 124, N-{1-[(5-Chloro-2-{[(2-chloro-4-fluorophenyl)methyl]oxy}phenyl)methyl]-5-methyl-1H-pyrazol-3-yl}-2-phenylacetamide], the Ki is more than 1000 nM. For the compound `Cc1cc(NC(=O)Cc2ccccc2)nn1Cc1cc(Cl)ccc1OCc1ccc(Cl)cc1Cl` [Example 125, N-{1-[(5-Chloro-2-{[(2,4-dichlorophenyl)methyl]oxy}phenyl)methyl]-5-methyl-1H-pyrazol-3-yl}-2-phenylacetamide], the Ki was more than 1000 nM. Consider `Cc1cc(NC(=O)Cc2ccccc2)nn1Cc1cc(Cl)ccc1OCc1c(F)cc(F)cc1F` [Example 127, N-{1-[(5-Chloro-2-{[(2,4,6-trifluorophenyl)methyl]oxy}phenyl)methyl]-5-methyl-1H-pyrazol-3-yl}-2-phenylacetamide], for which the Ki was more than 1000 nM. As to `Cc1cc(NC(=O)Cc2ccccc2)nn1Cc1cc(Cl)ccc1OCc1ccc(F)c(F)c1` [Example 128, N-{1-[(5-Chloro-2-{[(3,4-difluorophenyl)methyl]oxy}phenyl)methyl]-5-methyl-1H-pyrazol-3-yl}-2-phenylacetamide], the Ki is more than 1000 nM.

Consider `Cc1cc(NC(=O)Cc2ccccc2)nn1Cc1cc(Cl)ccc1OCc1ccccc1Cl` [Example 129, N-{1-[(5-Chloro-2-{[(2-chlorophenyl)methyl]oxy}phenyl)methyl]-5-methyl-1H-pyrazol-3-yl}-2-phenylacetamide], for which the Ki was more than 1000 nM. On to `Cc1cc(NC(=O)c2ccccn2)nn1Cc1cc(Cl)ccc1OCc1ccccc1` [Example 139, N-[1-({5-Chloro-2-[(phenylmethyl)oxy]phenyl}methyl)-5-methyl-1H-pyrazol-3-yl]-2-pyridinecarboxamide], for which the Ki was more than 1000 nM. Then `Cc1cc(NC(=O)c2ccco2)nn1Cc1cc(Cl)ccc1OCc1ccccc1` [Example 140, N-[1-({5-Chloro-2-[(phenylmethyl)oxy]phenyl}methyl)-5-methyl-1H-pyrazol-3-yl]-2-furancarboxamide], with more than 1000 nM. As to `Cc1cc(NC(=O)c2ccc(C#N)cc2)nn1Cc1cc(Cl)ccc1OCc1ccccc1` [Example 142, N-[1-({5-Chloro-2-[(phenylmethyl)oxy]phenyl}methyl)-5-methyl-1H-pyrazol-3-yl]-4-cyanobenzamide], the Ki is more than 1000 nM. As to `Cc1cc(NC(=O)c2cnccn2)nn1Cc1cc(Cl)ccc1OCc1ccccc1` [Example 144, N-[1-({5-Chloro-2-[(phenylmethyl)oxy]phenyl}methyl)-5-methyl-1H-pyrazol-3-yl]-2-pyrazinecarboxamide], the Ki is more than 1000 nM. Turning to `Cc1cc(NC(=O)c2cccnc2)nn1Cc1cc(Cl)ccc1OCc1ccccc1` [Example 145, N-[1-({5-Chloro-2-[(phenylmethyl)oxy]phenyl}methyl)-5-methyl-1H-pyrazol-3-yl]-3-pyridinecarboxamide], the Ki was more than 1000 nM.

(Values after US20090239845A1, “PYRAZOLE COMPOUNDS AS PROSTAGLANDIN RECEPTORS LIGANDS” (priority 2005, published 2009).)
